Measurements: paper PMC5427467, “Isolation and characterization of phthalates from Brevibacterium mcbrellneri that cause cytotoxicity and cell cycle arrest” (EXCLI Journal, 2017)
Converted amounts (≈) assume the structure as drawn. Where two headings read alike, the source gives them in different places.

Assays:
[1] = tested on: Bacillus subtilis (MTCC 441); assay: Anti-bacterial activity, MIC in 96-well broth dilution; format: cell-based; details: MTCC441, B. subtilis, 24 hrs at 37 °C
Procedure: (§1) The antibacterial evaluation was carried out against Gram positive bacteria; Staphylococcus epidermidis (MTCC 435), Bacillus subtilis (MTCC 441), Staphylococcus aureus (MTCC 96), and Gram negative bacteria; Pseudomonas aeruginosa (MTCC 741), E. coli (MTCC 443) and Klebsiella pneumoniae (MTCC 618). Brevibacterium mcbrellneri MTCC (3913) was chosen for isolation of biologically active compounds.
(§2) The minimum inhibitory concentrations (MIC) were recorded against Staphylococcus aureus, Bacillus subtilis, Staphylococcus epidermidis, Pseudomonas aeruginosa, Escherichia coli and Klebsiella pneumoniae. In brief 96-well plates were distributed with Nutrient broth and the compounds in different concentrations (150 μg/mL to 0.5μg/mL). 50 μL microbial suspensions were seeded into each well (0.5 MacFarland standards) to make the final volume of 200 μl with culture broth. The plates were incubated for 24 hrs at 37 °C. The lowest concentration, at which the visible inhibition was recorded, was considered as MIC. Streptomycin and Benzylpenicillin were used as positive controls.

[2] = tested on: E. coli (MTCC 443); assay: as above; format: cell-based; details: Escherichia coli, MTCC443, 24 hrs at 37 °C
Procedure: as §1, §2

[3] = tested on: Klebsiella pneumoniae (MTCC 618); assay: as above; format: cell-based; details: MTCC618, K. pneumoniae, 24 hrs at 37 °C
Procedure: as §1, §2

[4] = tested on: Pseudomonas aeruginosa (MTCC 741); assay: as above; format: cell-based; details: MTCC741, P. aeroginosa, 24 hrs at 37 °C
Procedure: as §1, §2

[5] = tested on: Staphylococcus aureus (MTCC 96); assay: as above; format: cell-based; details: MTCC96, S. aureus, 24 hrs at 37 °C
Procedure: as §1, §2

[6] = tested on: Staphylococcus epidermidis (MTCC 435); assay: as above; format: cell-based; details: MTCC435, S. epidermidis, 24 hrs at 37 °C
Procedure: as §1, §2

[7] = tested on: 4th instar larvae of Aedes aegypti; assay: Larvicidal bioassay/Dose-response bioassay; format: in vivo; details: 4th instar Aedes aegypti larvae, 24 h exposure
Procedure: The early 4th instar larvae of Aedes aegypti were selected for evaluation of mosquito larvicidal activity. The larvae were collected and fed with a mixture powdered yeast and dog biscuits. These were maintained in insectaries till the emergence of adults. The colony was photo periodically maintained at 14 L: 10 D (hours) and with relative humidity 80 ± 5 % at 28 °C (Kumar et al., 2010[16]). Adult mosquitoes were fed with blood for egg maturation. The eggs were allowed to hatch in an enamel bowl lined with Whatman filter paper filled with distilled water. The pupae formed were separated and transferred to insectary for the emergence of adults (da Silva et al., 2016[6]).
Based on the preliminary screening results, different concentrations ranging from 25 to 200 ppm were prepared for DEHP and 25 to 1 ppm for DBP were used. The compounds were subjected to dose response bioassay against 4th instar larvae of Aedes aegypti larvae. Dead larvae were counted after 24 h of exposure, and the percentage mortality was reported from the average of triplicates (Govindarajan et al., 2016[9]).

[8] = tested on: CHO; assay: MTT cell proliferation assay; format: cell-based; details: Cricetulus griseus, 24 hrs
Procedure: (§3) The MTT cell proliferation was assessed against the cell lines HeLa (ATCC; CCL-2), A549 (ATCC; CCL-185), MCF-7 (ATCC; HTB-22), DU145 (ATCC; HTB-81), CHO (ATCC; CCL-61), HEK293 (ATCC; CRL-1573), NIH3T3 (ATCC; CRL-1658) were procured from the American Type Culture Collection (ATCC). These cell lines were grown and maintained in Dulbecco's modified Eagle's medium with non-essential amino acids, 10 % fetal bovine serum (FBS), 1 mM sodium pyruvate, in humidified atmosphere containing 5 % CO2 at 37 °C (Esumi et al., 2004[7]).
(§4) The cell lines were seeded in 96-well plates in 200 µL aliquots. The test compounds in different concentrations were added and incubated at 37 °C for 24 hrs. Doxorubicin was used as positive control (Prata-Sena et al., 2016[28]).

[9] = tested on: DU-145; assay: MTT cell proliferation assay; format: cell-based; details: Homo sapiens; DU-145, MTT, 24 hrs
Procedure: as §3, §4

[10] = tested on: MCF-7; assay: MTT cell proliferation assay; format: cell-based; details: Homo sapiens, MCF7; MCF-7, MTT, 24 hrs
Procedure: as §3, §4

[11] = tested on: B. subtilis; set-up: method as in Habib and Karim, 2009 [10]; details: DEHP isolated from Calotropis gigantean, ref Habib and Karim, 2009 [10]; cited from earlier work
[12] = tested on: Sarcina lutea; set-up: method as in Habib and Karim, 2009 [10]; details: DEHP isolated from Calotropis gigantean, ref Habib and Karim, 2009 [10]; cited from earlier work
[13] = set-up: method as in Habib and Karim, 2009 [10]; details: DEHP isolated from Calotropis gigantean; ref Habib and Karim, 2009 [10]; cited from earlier work
[14] = tested on: HaCaT cells; set-up: method as in Peropadre et al., 2015 [26]; details: ref Peropadre et al., 2015 [26]; cited from earlier work
[15] = tested on: HePG2 cells; set-up: method as in Lyu et al., 2016 [19]; details: ref Lyu et al., 2016 [19]; cited from earlier work
[16] = tested on: HEK 293; assay: MTT cell proliferation assay; format: cell-based; details: Homo sapiens, HEK293; HEK 293, MTT, 24 hrs
Procedure: as §3, §4

[17] = tested on: E. coli; set-up: method as in Roy et al., 2006 [30]; details: DBP isolated from Streptomyces albidoflavus, ref Roy et al., 2006 [30]; cited from earlier work
[18] = tested on: B. subtilis; set-up: method as in Roy et al., 2006 [30]; details: DBP isolated from Streptomyces albidoflavus, ref Roy et al., 2006 [30]; cited from earlier work
[19] = tested on: S. typhi; set-up: method as in Roy et al., 2006 [30]; details: DBP isolated from Streptomyces albidoflavus, ref Roy et al., 2006 [30]; cited from earlier work
[20] = tested on: S. cerevisiae; set-up: method as in Roy et al., 2006 [30]; details: DBP isolated from Streptomyces albidoflavus, ref Roy et al., 2006 [30]; cited from earlier work
[21] = tested on: A. niger; set-up: method as in Roy et al., 2006 [30]; details: DBP isolated from Streptomyces albidoflavus, ref Roy et al., 2006 [30]; cited from earlier work
[22] = tested on: Curvularia pallescens; set-up: method as in Roy et al., 2006 [30]; details: DBP isolated from Streptomyces albidoflavus, ref Roy et al., 2006 [30]; cited from earlier work
[23] = tested on: A549 cells; set-up: method as in Hsu et al., 2011 [14]; details: ref Hsu et al., 2011 [14]; cited from earlier work

Structure (SMILES)	MIC [1]	MIC [2]	MIC [3]	MIC [4]	MIC [5]	MIC [6]	LC50 [7]	IC50 [8]	IC50 [9]	IC50 [10]	IC50 [16]	other results
CCCCC(CC)COC(=O)c1ccccc1C(=O)OCC(CC)CCCC (centres unmarked) [DEHP, di-(2-ethylhexyl) phthalate]	37.5 mg/L (≈ 96 µM)	37.5 mg/L (≈ 96 µM)	75 mg/L (≈ 192 µM)	75 mg/L (≈ 192 µM)	18.8 mg/L (≈ 48 µM)	9.37 mg/L (≈ 24 µM)	47.65 ppm	193 ± 5.4 mg/L (≈ 494 µM)	33.5 ± 7.7 mg/L (≈ 85.7 µM)	46.55 ± 0.1 mg/L (≈ 119 µM)	–	MIC [11]: 32 mg/L (≈ 81.9 µM); MIC [12]: 32 mg/L (≈ 81.9 µM); antifungal property [13]: negligible; cell cycle effect [14]: cell cycle arrest at G1 phase; apoptosis / cell cycle effect [15]: apoptosis without cell cycle arrest
CCCCOC(=O)c1ccccc1C(=O)OCCCC [DBP, dibutyl phthalate]	18.8 mg/L (≈ 67.4 µM)	37.5 mg/L (≈ 135 µM)	75 mg/L (≈ 269 µM)	37.5 mg/L (≈ 135 µM)	37.5 mg/L (≈ 135 µM)	18.8 mg/L (≈ 67.4 µM)	1.62 ppm	36 ± 8.6 mg/L (≈ 129 µM)	31.2 ± 8.7 mg/L (≈ 112 µM)	32.4 ± 3.6 mg/L (≈ 117 µM)	19.8 ± 10 mg/L (≈ 71 µM)	mortality at 25 ppm ([7]; at 25 ppm): 100%; MIC [17]: 53 mg/L (≈ 190 µM); MIC [18]: 84 mg/L (≈ 302 µM); MIC [19]: 76 mg/L (≈ 273 µM); MIC [20]: 92 mg/L (≈ 331 µM); MIC [21]: 98 mg/L (≈ 352 µM); MIC [22]: 117 mg/L (≈ 420 µM); cytotoxic activity [23]: Cytotoxic activity
COc1cccc2c1C(=O)c1c(O)c3c(c(O)c1C2=O)C[C@@](O)(C(=O)CO)C[C@@H]3O[C@H]1C[C@H](N)[C@H](O)[C@H](C)O1 [doxorubicin, Doxorubicin, reference compound]	–	–	–	–	–	–	–	–	–	–	21.8 ± 8.8 mg/L (≈ 40.1 µM)	–
